This passage reports MIC and Ratio results from ChEMBL document CHEMBL1795320, “Synthesis and antibacterial activity of novel 4″-O-benzimidazolyl clarithromycin derivatives” (2011).

A word on the MIC: it is the lowest concentration found to suppress growth.

≈ marks a conversion by molar mass, not a printed value.

Type in all cases: functional
Experiment [1] concerns Staphylococcus aureus. In words: Antibacterial activity against erythromycin-susceptible Staphylococcus aureus ATCC 25923 by broth microdilution method. For orientation: Broth dilution looks for growth in wells or tubes with falling amounts of substance.
For experiment [2], the system named is Streptococcus pneumoniae. The experiment in a line: Ratio of erythromycin MIC to compound MIC for erythromycin-resistant Streptococcus pneumoniae A22072 expressing mef gene.
In experiment [3] the test system is Streptococcus pneumoniae. The experiment in a line: Antibacterial activity against erythromycin-resistant Streptococcus pneumoniae B1 expressing erm gene by broth microdilution method.
In experiment [4] the test system is Streptococcus pneumoniae. The experiment in a line: Antibacterial activity against erythromycin-resistant Streptococcus pneumoniae A22072 expressing mef gene by broth microdilution method.
The test system of experiment [5] is Streptococcus pneumoniae. In words: Antibacterial activity against erythromycin-susceptible Streptococcus pneumoniae ATCC 49619 by broth microdilution method.
The test system of experiment [6] is Streptococcus pneumoniae. In words: Antibacterial activity against erythromycin-resistant Streptococcus pneumoniae AB11 expressing erm and mef gene by broth microdilution method.
Experiment [7] concerns Streptococcus pneumoniae. The experiment in a line: Ratio of clarithromycin MIC to compound MIC for erythromycin-resistant Streptococcus pneumoniae A22072 expressing mef gene.
Experiment [8] concerns Streptococcus pneumoniae. In words: Ratio of azithromycin MIC to compound MIC for erythromycin-resistant Streptococcus pneumoniae B1 expressing erm gene.
Experiment [9] has as its system Streptococcus pneumoniae. In words: Ratio of erythromycin MIC to compound MIC for erythromycin-resistant Streptococcus pneumoniae B1 expressing erm gene.
The test system of experiment [10] is Streptococcus pneumoniae. The experiment in a line: Ratio of clarithromycin MIC to compound MIC for erythromycin-resistant Streptococcus pneumoniae B1 expressing erm gene.
The test system of experiment [11] is Staphylococcus aureus. The experiment in a line: Ratio of clarithromycin MIC to compound MIC for erythromycin-susceptible Staphylococcus aureus ATCC 25923.
Experiment [12] has as its system Streptococcus pneumoniae. The experiment in a line: Ratio of clarithromycin MIC to compound MIC for erythromycin-susceptible Streptococcus pneumoniae ATCC 49619.

For `CC[C@H]1OC(=O)[C@H](C)[C@@H](O[C@H]2C[C@@](C)(OC)[C@@H](OC(=O)NNC(=O)c3ccc4[nH]c(-c5ccc([N+](=O)[O-])cc5)nc4c3)[C@H](C)O2)[C@H](C)[C@@H](O[C@@H]2O[C@H](C)C[C@H](N(C)C)[C@H]2O)[C@](C)(OC)C[C@@H](C)C(=O)[C@H](C)[C@@H](O)[C@]1(C)O`, the MIC turned out to be 1 µg/mL (≈ 0.934 µM) in experiment [1]; 16 µg/mL (≈ 14.9 µM) in experiment [3]; 0.03 µg/mL (≈ 0.028 µM) in experiment [4]; 0.25 µg/mL (≈ 0.233 µM) in [5]; 16 µg/mL (≈ 14.9 µM) in experiment [6]. Also, the Ratio in experiment [2] is recorded as 267; in [7], 133.
`CC[C@H]1OC(=O)[C@H](C)[C@@H](O[C@H]2C[C@@](C)(OC)[C@@H](OC(=O)NNC(=O)c3ccc4[nH]c(-c5ccc(OC)cc5)nc4c3)[C@H](C)O2)[C@H](C)[C@@H](O[C@@H]2O[C@H](C)C[C@H](N(C)C)[C@H]2O)[C@](C)(OC)C[C@@H](C)C(=O)[C@H](C)[C@@H](O)[C@]1(C)O`: the MIC in experiment [1] came to 0.25 µg/mL (≈ 0.237 µM); in experiment [3], 4 µg/mL (≈ 3.79 µM); in experiment [4], 0.03 µg/mL (≈ 0.0284 µM); in [5], 0.12 µg/mL (≈ 0.114 µM); in experiment [6] it was 16 µg/mL (≈ 15.1 µM). Moreover, the results for the Ratio in [2] and in experiment [7] were 267 and 133, respectively.
Turning to `CC[C@H]1OC(=O)[C@H](C)[C@@H](O[C@H]2C[C@@](C)(OC)[C@@H](OC(=O)NNC(=O)c3ccc4[nH]c(-c5ccc(C)cc5)nc4c3)[C@H](C)O2)[C@H](C)[C@@H](O[C@@H]2O[C@H](C)C[C@H](N(C)C)[C@H]2O)[C@](C)(OC)C[C@@H](C)C(=O)[C@H](C)[C@@H](O)[C@]1(C)O`, the MIC was determined as 0.25 µg/mL (≈ 0.24 µM) in experiment [1]; 2 µg/mL (≈ 1.92 µM) in experiment [3]; 0.03 µg/mL (≈ 0.0288 µM) in experiment [4]; 0.12 µg/mL (≈ 0.115 µM) in experiment [5]; 16 µg/mL (≈ 15.4 µM) in experiment [6]. Also, the Ratio came to 64 in experiment [8]; 267 in experiment [2]; 64 in experiment [9]; 64 in experiment [10]; 133 in [7].
With `CC[C@H]1OC(=O)[C@H](C)[C@@H](O[C@H]2C[C@@](C)(OC)[C@@H](OC(=O)NNC(=O)c3ccc4[nH]c(-c5ccccc5OC)nc4c3)[C@H](C)O2)[C@H](C)[C@@H](O[C@@H]2O[C@H](C)C[C@H](N(C)C)[C@H]2O)[C@](C)(OC)C[C@@H](C)C(=O)[C@H](C)[C@@H](O)[C@]1(C)O`, the MIC in [1] is 0.03 µg/mL (≈ 0.0284 µM); in experiment [3] it was 2 µg/mL (≈ 1.89 µM); in experiment [4] it was 0.03 µg/mL (≈ 0.0284 µM); in experiment [5], 0.03 µg/mL (≈ 0.0284 µM); in [6] it was 16 µg/mL (≈ 15.1 µM). The Ratio is 4 in experiment [11]; 4 in experiment [12]; 64 in experiment [8]; 267 in experiment [2]; 64 in experiment [9]; 64 in experiment [10]. For the same molecule, the Ratio in [7] was found to be 133.
Turning to `CC[C@H]1OC(=O)[C@H](C)[C@@H](O[C@H]2C[C@@](C)(OC)[C@@H](OC(=O)NNC(=O)c3ccc4[nH]c(-c5ccccc5)nc4c3)[C@H](C)O2)[C@H](C)[C@@H](O[C@@H]2O[C@H](C)C[C@H](N(C)C)[C@H]2O)[C@](C)(OC)C[C@@H](C)C(=O)[C@H](C)[C@@H](O)[C@]1(C)O`, the MIC in [1] amounted to 0.25 µg/mL (≈ 0.244 µM); in [3], 8 µg/mL (≈ 7.8 µM); in experiment [4], 0.03 µg/mL (≈ 0.0292 µM); in [5], 0.03 µg/mL (≈ 0.0292 µM); in experiment [6] it was 16 µg/mL (≈ 15.6 µM). The Ratio in [2] is on record as 267; in experiment [7] it was 133.
Consider `CC[C@H]1OC(=O)[C@H](C)[C@@H](O[C@H]2C[C@@](C)(OC)[C@@H](OC(=O)NNC(=O)c3ccc4[nH]c(-c5cccc(OC)c5)nc4c3)[C@H](C)O2)[C@H](C)[C@@H](O[C@@H]2O[C@H](C)C[C@H](N(C)C)[C@H]2O)[C@](C)(OC)C[C@@H](C)C(=O)[C@H](C)[C@@H](O)[C@]1(C)O`, for which the minimal inhibitory concentration (MIC) was determined as 0.12 µg/mL (≈ 0.114 µM) in experiment [1]; 16 µg/mL (≈ 15.1 µM) in experiment [3]; 0.03 µg/mL (≈ 0.0284 µM) in [4]; 0.03 µg/mL (≈ 0.0284 µM) in experiment [5]; 32 µg/mL (≈ 30.3 µM) in experiment [6]. Further, the Ratio in experiment [2] is recorded as 267; in [7], 133.
Regarding `CC[C@H]1OC(=O)[C@H](C)[C@@H](O[C@H]2C[C@@](C)(OC)[C@@H](OC(=O)NNC(=O)c3ccc4[nH]c(-c5ccc(Cl)cc5)nc4c3)[C@H](C)O2)[C@H](C)[C@@H](O[C@@H]2O[C@H](C)C[C@H](N(C)C)[C@H]2O)[C@](C)(OC)C[C@@H](C)C(=O)[C@H](C)[C@@H](O)[C@]1(C)O`, the MIC in experiment [1] is 0.5 µg/mL (≈ 0.471 µM); in experiment [3] it was 8 µg/mL (≈ 7.54 µM); in experiment [4] it was 0.03 µg/mL (≈ 0.0283 µM); in experiment [5], 0.03 µg/mL (≈ 0.0283 µM); in [6] it was 16 µg/mL (≈ 15.1 µM). Also, the Ratio in experiment [2] is recorded as 267; in experiment [7], 133.
